What was measured:
barnyardgrass [1] = assay: Test C preemergence; type: in vivo, Echinochloa crusgalli; details: for Plant response rating, Barnyardgrass: Preemergence; for Barnyardgrass plant response rating: preemergence
Method in brief: (§1)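 Pre: seeds in loam/sand, directed soil spray. Post: 1–2 leaf plants, 2–10 cm. Cmpd in non-phytotoxic solvent + surfactant. Greenhouse 10 d; visual rating vs untreated, 0 = none, 100 = complete control.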

galium = assay: Test C postemergence; type: in vivo, Galium aparine; details: 10 days
Method in brief: as §1

ragweed [2] = assay: Test C postemergence; type: in vivo, Ambrosia artemisiifolia; details: 10 days
Method in brief: as §1

green foxtail [3] = assay: Test C postemergence; type: in vivo, Setaria viridis; details: 10 days
Method in brief: as §1

soybean [4] = assay: Test C postemergence; type: in vivo, Glycine max; details: 10 days
Method in brief: as §1

kochia [5] = assay: Test C postemergence; type: in vivo, Bassia scoparia; details: 10 days
Method in brief: as §1

soybean [6] = assay: Test C preemergence; type: in vivo, Glycine max; details: for Plant response rating, Soybean: Preemergence; for Soybean plant response rating: preemergence
Method in brief: as §1

ragweed [7] = assay: Test C preemergence; type: in vivo, Ambrosia artemisiifolia; details: for Plant response rating, Ragweed: Preemergence; for Ragweed plant response rating: preemergence
Method in brief: as §1

rice = assay: Test D flooded paddy test; type: in vivo, Oryza sativa; details: 250 g ai/ha, applied to paddy water, visual rating after 13 to 14 days, scale 0 to 100 (0 no effect, 100 complete control)
Method in brief: (§2)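 Rating scale 0–100 (0 no effect, 100 complete control), visual, versus controls. Readout at 13–14 days after in-water application to 2-leaf plants in pots flooded 3 cm deep.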

pigweed, palmer [8] = assay: Test C postemergence; type: in vivo, Amaranthus palmeri; details: 10 days
Method in brief: as §1

green foxtail [9] = assay: Test C preemergence; type: in vivo, Setaria viridis; details: for Plant response rating, Foxtail, Green: Preemergence; for Foxtail, Green plant response rating: preemergence
Method in brief: as §1

ryegrass, Italian [10] = assay: Test C preemergence; type: in vivo, Lolium multiflorum; details: for Plant response rating, Ryegrass, Italian: Preemergence; for Ryegrass, Italian plant response rating: preemergence
Method in brief: as §1

oat, wild [11] = assay: Test C preemergence; type: in vivo, Avena fatua; details: for Plant response rating, Oat, Wild: Preemergence; for Oat, Wild plant response rating: preemergence
Method in brief: as §1

blackgrass [12] = assay: Test C preemergence; type: in vivo, Alopecurus myosuroides; details: for Plant response rating, Blackgrass: Preemergence; for Blackgrass plant response rating: preemergence
Method in brief: as §1

barnyardgrass [13] = assay: Test C postemergence; type: in vivo, Echinochloa crusgalli; details: 10 days
Method in brief: as §1

pigweed, palmer [14] = assay: Test C preemergence; type: in vivo, Amaranthus palmeri; details: for Plant response rating, Pigweed, Palmer: Preemergence; for Pigweed, Palmer plant response rating: preemergence
Method in brief: as §1

corn [15] = assay: Test C preemergence; type: in vivo, Zea mays; details: for Plant response rating, Corn: Preemergence; for Corn plant response rating: preemergence
Method in brief: as §1

wheat [16] = assay: Test C preemergence; type: in vivo, Triticum aestivum; details: for Plant response rating, Wheat: Preemergence; for Wheat plant response rating: preemergence
Method in brief: as §1

wheat [17] = assay: Test C postemergence; type: in vivo, Triticum aestivum; details: 10 days
Method in brief: as §1

barnyardgrass [18] = assay: Test D flooded paddy test; type: in vivo, Echinochloa crus-galli; details: 250 g ai/ha, applied to paddy water, visual rating after 13 to 14 days, scale 0 to 100 (0 no effect, 100 complete control)
Method in brief: as §2

kochia [19] = assay: Test C preemergence; type: in vivo, Bassia scoparia; details: for Plant response rating, Kochia: Preemergence; for Kochia plant response rating: preemergence
Method in brief: as §1

corn [20] = assay: Test C postemergence; type: in vivo, Zea mays; details: 10 days
Method in brief: as §1

ryegrass, Italian [21] = assay: Test C postemergence; type: in vivo, Lolium multiflorum; details: 10 days
Method in brief: as §1

ducksalad = assay: Test D flooded paddy test; type: in vivo, Heteranthera limosa; details: 250 g ai/ha, applied to paddy water, visual rating after 13 to 14 days, scale 0 to 100 (0 no effect, 100 complete control)
Method in brief: as §2

sedge, umbrella = assay: Test D flooded paddy test; type: in vivo, Cyperus difformis; details: 250 g ai/ha, applied to paddy water, visual rating after 13 to 14 days, scale 0 to 100 (0 no effect, 100 complete control)
Method in brief: as §2

blackgrass [22] = assay: Test C postemergence; type: in vivo, Alopecurus myosuroides; details: 10 days
Method in brief: as §1

horseweed = assay: Test C postemergence; type: in vivo, Erigeron canadensis; details: 10 days
Method in brief: as §1

oat, wild [23] = assay: Test C postemergence; type: in vivo, Avena fatua; details: 10 days
Method in brief: as §1

[24] = 500 g ai/ha, visual rating after 10 days, 0 to 100 scale (0 no effect, 100 complete control)
[25] = Test C, 125 g ai/ha, 0 to 100 scale (0 no effect, 100 complete control)
[26] = 125 g ai/ha, postemergence, 0 to 100 scale, 0 no effect, 100 complete control
[27] = Postemergence, 500 g ai/ha, visual 0 to 100 scale (0 no effect, 100 complete control)
[28] = 500 g ai/ha, 0 to 100 scale (0 no effect, 100 complete control)
[29] = 125 g ai/ha, 0 to 100 scale, 0 no effect, 100 complete control
[30] = 500 g ai/ha, postemergence, 0 to 100 scale (0 no effect, 100 complete control)
[31] = Postemergence, 125 g ai/ha, 0 to 100 scale (0 no effect, 100 complete control)

With `COc1ccc(-n2cnc(C(C)C)n2)cc1C(=O)N1C[C@H](C)Oc2c(C)cccc21` [Compound 210] the “Plant response rating, Barnyardgrass” value (barnyardgrass [1]; [24]) was 100, the “Barnyardgrass plant response rating” value (barnyardgrass [1]; [25]) was 100 and the “Plant response rating, Galium” value (galium; [26]) was 100. For the same molecule, the “Plant response rating, Galium” value (galium; [27]) was 100, the “Plant response rating, Ragweed” value (ragweed [2]; [26]) was 60 and the “Plant response rating, Ragweed” value (ragweed [2]; [27]) was 80. For the same molecule, the “Plant response rating, Foxtail, Green” value (green foxtail [3]; [26]) was 90, the “Plant response rating, Foxtail, Green” value (green foxtail [3]; [27]) was 90 and the “Plant response rating, Soybean” value (soybean [4]; [26]) was 0. For the same molecule, the “Plant response rating, Soybean” value (soybean [4]; [27]) was 10, the “Plant response rating, Kochia” value (kochia [5]; [26]) was 70 and the “Plant response rating, Kochia” value (kochia [5]; [27]) was 90. The “Plant response rating, Soybean” value (soybean [6]; [24]) was 100, the “Soybean plant response rating” value (soybean [6]; [25]) was 90 and the “Plant response rating, Ragweed” value (ragweed [7]; [24]) was 80. For the same molecule, the “Ragweed plant response rating” value (ragweed [7]; [25]) was 30, the “Plant response rating, Rice (Flood)” value (rice) was 15 and the “Plant response rating, Pigweed, Palmer” value (pigweed, palmer [8]; [26]) was 90. For the same molecule, the “Plant response rating, Pigweed, Palmer” value (pigweed, palmer [8]; [27]) was 100, the “Plant response rating, Foxtail, Green” value (green foxtail [9]; [24]) was 100 and the “Foxtail, Green plant response rating” value (green foxtail [9]; [25]) was 100. For the same molecule, the “Plant response rating, Ryegrass, Italian” value (ryegrass, Italian [10]; [24]) was 100, the “Ryegrass, Italian plant response rating” value (ryegrass, Italian [10]; [25]) was 100 and the “Plant response rating, Oat, Wild” value (oat, wild [11]; [24]) was 90. For the same molecule, the “Oat, Wild plant response rating” value (oat, wild [11]; [25]) was 60, the “Plant response rating, Blackgrass” value (blackgrass [12]; [24]) was 100 and the “Blackgrass plant response rating” value (blackgrass [12]; [25]) was 80. For the same molecule, the “Plant response rating, Barnyardgrass” value (barnyardgrass [13]; [26]) was 50, the “Plant response rating, Barnyardgrass” value (barnyardgrass [13]; [27]) was 100 and the “Plant response rating, Pigweed, Palmer” value (pigweed, palmer [14]; [24]) was 100. For the same molecule, the “Pigweed, Palmer plant response rating” value (pigweed, palmer [14]; [25]) was 100, the “Plant response rating, Corn” value (corn [15]; [24]) was 60 and the “Corn plant response rating” value (corn [15]; [25]) was 30. The “Plant response rating, Wheat” value (wheat [16]; [24]) was 90, the “Wheat plant response rating” value (wheat [16]; [25]) was 90 and the “Plant response rating, Wheat” value (wheat [17]; [26]) was 50. For the same molecule, the “Plant response rating, Wheat” value (wheat [17]; [27]) was 90, the “Plant response rating, Barnyardgrass (Flood)” value (barnyardgrass [18]) was 20 and the “Plant response rating, Kochia” value (kochia [19]; [24]) was 100. For the same molecule, the “Kochia plant response rating” value (kochia [19]; [25]) was 90, the “Plant response rating, Corn” value (corn [20]; [26]) was 80 and the “Plant response rating, Corn” value (corn [20]; [27]) was 90. The “Plant response rating, Ryegrass, Italian” value (ryegrass, Italian [21]; [26]) was 60, the “Plant response rating, Ryegrass, Italian” value (ryegrass, Italian [21]; [27]) was 90 and the “Plant response rating, Ducksalad (Flood)” value (ducksalad) was 85. For the same molecule, the “Plant response rating, Sedge, Umbrella (Flood)” value (sedge, umbrella) was 100, the “Plant response rating, Blackgrass” value (blackgrass [22]; [26]) was 90 and the “Plant response rating, Blackgrass” value (blackgrass [22]; [27]) was 90. For the same molecule, the “Plant response rating, Horseweed” value (horseweed; [26]) was 80, the “Plant response rating, Horseweed” value (horseweed; [27]) was 80 and the “Plant response rating, Oat, Wild” value (oat, wild [23]; [26]) was 80. The “Plant response rating, Oat, Wild” value (oat, wild [23]; [27]) was 80.

With `CC(C)(C)c1ncn(-c2cccc(C(=O)N3CC(C(F)(F)F)Oc4c(Cl)cccc43)c2)n1` (centres unmarked) [Compound 353] the “Barnyardgrass plant response rating” value (barnyardgrass [1]; [28]) was 70, the “Plant response rating, Barnyardgrass” value (barnyardgrass [1]; [29]) was 20 and the “Plant response rating, Galium” value (galium; [30]) was 90. For the same molecule, the “Plant response rating, Galium” value (galium; [31]) was 70, the “Plant response rating, Ragweed” value (ragweed [2]; [30]) was 60 and the “Plant response rating, Ragweed” value (ragweed [2]; [31]) was 50. For the same molecule, the “Plant response rating, Foxtail, Green” value (green foxtail [3]; [30]) was 40, the “Plant response rating, Foxtail, Green” value (green foxtail [3]; [31]) was 20 and the “Plant response rating, Soybean” value (soybean [4]; [30]) was 80. For the same molecule, the “Plant response rating, Soybean” value (soybean [4]; [31]) was 80, the “Plant response rating, Kochia” value (kochia [5]; [30]) was 70 and the “Plant response rating, Kochia” value (kochia [5]; [31]) was 60. For the same molecule, the “Soybean plant response rating” value (soybean [6]; [28]) was 40, the “Plant response rating, Soybean” value (soybean [6]; [29]) was 20 and the “Ragweed plant response rating” value (ragweed [7]; [28]) was 0. The “Plant response rating, Ragweed” value (ragweed [7]; [29]) was 0, the “Plant response rating, Rice (Flood)” value (rice) was 0 and the “Plant response rating, Pigweed, Palmer” value (pigweed, palmer [8]; [30]) was 100. The “Plant response rating, Pigweed, Palmer” value (pigweed, palmer [8]; [31]) was 90, the “Foxtail, Green plant response rating” value (green foxtail [9]; [28]) was 100 and the “Plant response rating, Foxtail, Green” value (green foxtail [9]; [29]) was 90. The “Ryegrass, Italian plant response rating” value (ryegrass, Italian [10]; [28]) was 90, the “Plant response rating, Ryegrass, Italian” value (ryegrass, Italian [10]; [29]) was 80 and the “Oat, Wild plant response rating” value (oat, wild [11]; [28]) was 80. The “Plant response rating, Oat, Wild” value (oat, wild [11]; [29]) was 30, the “Blackgrass plant response rating” value (blackgrass [12]; [28]) was 50 and the “Plant response rating, Blackgrass” value (blackgrass [12]; [29]) was 0. The “Plant response rating, Barnyardgrass” value (barnyardgrass [13]; [30]) was 30, the “Plant response rating, Barnyardgrass” value (barnyardgrass [13]; [31]) was 10 and the “Pigweed, Palmer plant response rating” value (pigweed, palmer [14]; [28]) was 100. For the same molecule, the “Plant response rating, Pigweed, Palmer” value (pigweed, palmer [14]; [29]) was 90, the “Corn plant response rating” value (corn [15]; [28]) was 10 and the “Plant response rating, Corn” value (corn [15]; [29]) was 10. The “Wheat plant response rating” value (wheat [16]; [28]) was 30, the “Plant response rating, Wheat” value (wheat [16]; [29]) was 10 and the “Plant response rating, Wheat” value (wheat [17]; [30]) was 20. The “Plant response rating, Wheat” value (wheat [17]; [31]) was 20, the “Plant response rating, Barnyardgrass (Flood)” value (barnyardgrass [18]) was 0 and the “Kochia plant response rating” value (kochia [19]; [28]) was 70. The “Plant response rating, Kochia” value (kochia [19]; [29]) was 0, the “Plant response rating, Corn” value (corn [20]; [30]) was 10 and the “Plant response rating, Corn” value (corn [20]; [31]) was 10. For the same molecule, the “Plant response rating, Ryegrass, Italian” value (ryegrass, Italian [21]; [30]) was 40, the “Plant response rating, Ryegrass, Italian” value (ryegrass, Italian [21]; [31]) was 20 and the “Plant response rating, Ducksalad (Flood)” value (ducksalad) was 0. For the same molecule, the “Plant response rating, Sedge, Umbrella (Flood)” value (sedge, umbrella) was 0, the “Plant response rating, Blackgrass” value (blackgrass [22]; [30]) was 30 and the “Plant response rating, Blackgrass” value (blackgrass [22]; [31]) was 0. For the same molecule, the “Plant response rating, Horseweed” value (horseweed; [30]) was 0, the “Plant response rating, Horseweed” value (horseweed; [31]) was 20 and the “Plant response rating, Oat, Wild” value (oat, wild [23]; [30]) was 0. The “Plant response rating, Oat, Wild” value (oat, wild [23]; [31]) was 0.

From patent US20260262643A1, “HERBICIDAL BENZOXAZINES” (FMC CORPORATION, priority 2022, published 2026)
